# Test results published in PMC9032718, “Eltrombopag as an Allosteric Inhibitor of the METTL3-14 Complex Affecting the m^6A Methylation of RNA in Acute Myeloid Leukemia Cells” (Pharmaceuticals, 2022).
# Tests used:
# DOT1L = target: T1, DOT1L (Homo sapiens, UniProt Q8TEK3); assay: Methyltransferase selectivity panel (MT HotSpot radioisotope assay), DOT1L; type: biochemical; conditions: 10 μM eltrombopag, DOT1L
# T1 construct: purchased Reaction Biology (Malvern, PA, USA), contract assay
# Description: The selectivity profile of eltrombopag was investigated by testing the level of inhibition in a methyltransferase panel. The inhibition of 7 […] methyltransferase was tested at Reaction Biology (Malvern, PA, USA) using a gold standard radioisotope-based MT assay (MT HotSpot^TM) with 10 μM of eltrombopag in duplicate.
# HL60 cells = assay: Anti-proliferative assay (EZ-cytox), HL60; type: cell-based; conditions: Homo sapiens, HL-60, 72 h
# Description: (§1) The MOLM-13, MOLM-14, HL60, MV4-11, and THP-1 cells were seeded in white 96-well clear bottomed plates with 100 μL of medium (5000 cells/well). The plated cells were treated with serially diluted compounds and incubated for 72 h at 37 °C. After incubation, 10 μL of EZ-cytox kit reagent from the EZ-cytox cell viability assay kit (DaeiLab, Seoul, Korea) was added to each well and then incubated for 3 h at 37 °C. The absorbance of metabolically active cells was measured at a wavelength of 450 nm using a Victor multilabel reader (PerkinElmer). The GI50 values were calculated by nonlinear regression analysis using OriginPro 9.1 software (OriginLab).
# THP-1 cells = assay: Anti-proliferative assay (EZ-cytox), THP-1; type: cell-based; conditions: Homo sapiens, THP-1, 72 h
# Description: as §1
# [1] = system: AML cell line transplanted mouse; set-up: method as in PMID 22627766; conditions: mouse model transplanted with an AML cell line; cited from earlier work
# METTL3 = target: T2, METTL3 (Homo sapiens, UniProt Q86U44); assay: Bioluminescence enzyme assay, single form of METTL3; type: biochemical; conditions: 1 μM METTL3, 1 μM SAM, 500 nM RNA, 5 h; read-out: IC50, single subunit enzyme form of METTL3
# T2 construct: 10x His (thrombin-cleavable); made in house; host or cells: insect cells, baculovirus (pVL1393)
# T2 sequence (Q86U44 whole entry): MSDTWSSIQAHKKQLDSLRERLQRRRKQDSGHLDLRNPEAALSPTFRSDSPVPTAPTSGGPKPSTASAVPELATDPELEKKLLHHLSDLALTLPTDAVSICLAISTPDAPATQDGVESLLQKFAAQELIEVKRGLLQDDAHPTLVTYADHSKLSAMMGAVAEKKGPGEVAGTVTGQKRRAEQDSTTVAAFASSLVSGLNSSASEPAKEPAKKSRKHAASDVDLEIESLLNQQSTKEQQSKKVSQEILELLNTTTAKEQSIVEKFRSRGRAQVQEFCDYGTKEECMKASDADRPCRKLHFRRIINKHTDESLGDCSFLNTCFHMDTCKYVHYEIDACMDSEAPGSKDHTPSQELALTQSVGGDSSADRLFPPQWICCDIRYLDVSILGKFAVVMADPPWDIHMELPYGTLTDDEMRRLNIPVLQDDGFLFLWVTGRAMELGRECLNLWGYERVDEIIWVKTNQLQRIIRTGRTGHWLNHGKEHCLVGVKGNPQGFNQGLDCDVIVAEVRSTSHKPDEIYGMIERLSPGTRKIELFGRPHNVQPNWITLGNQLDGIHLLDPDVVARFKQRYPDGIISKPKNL
# Description: An enzymatic bioluminescence assay was established to identify the METTL3-14 inhibitor through screening. […] METTL3-14 activity was assessed by measuring the luminescence using a Victor multilabel reader (PerkinElmer, Waltham, MA, USA). The IC50 values were calculated by a nonlinear regression analysis using OriginPro 9.1 software (OriginLab).
# To confirm the mechanism of action of eltrombopag in the METTL3-14 complex, 30 nM METTL3-14 and serially diluted eltrombopag were reacted with various concentrations of SAM or RNA substrate and saturating concentrations of the other substrate (3 μM SAM or 2 μM RNA substrate) for 20 min. To evaluate the inhibitory activity in a single form of METTL3 and METTL14, 1 μM of METTL3 and 300 nM of METTL14 were incubated with 1 μM of SAM, 500 nM of RNA substrates, and serially diluted eltrombopag for 5 h. To measure the inhibitory activity in the truncated form of the METTL3-14 complex, 1 μM of the truncated METTL3-14 complex was reacted with 1 μM of SAM, 500 nM of RNA substrates, and serially diluted eltrombopag for 5 h.
# [2] = set-up: method as in PMID 34225039; conditions: cited from earlier work
# METTL3-14 complex [3] = target: T3, METTL3-14 complex (Homo sapiens, UniProt Q86U44); assay: Surface plasmon resonance binding to METTL3-14; conditions: SPR
# T3 construct: genes encoding the full-length and MTase domain of human METTL3; METTL3-14 FL: full length of METTL3-14; 10x His (thrombin-cleavable) (cleaved yes); made in house; host or cells: Trichoplusia ni (Hi5) cells co-infected with two baculoviruses (virus made in Sf9)
# T3 sequence (Q86U44 whole entry, the tested form may be a part): as the sequence (Q86U44 whole entry) above
# T3 sequence (Q9HCE5 whole entry partner, the tested form may be a part): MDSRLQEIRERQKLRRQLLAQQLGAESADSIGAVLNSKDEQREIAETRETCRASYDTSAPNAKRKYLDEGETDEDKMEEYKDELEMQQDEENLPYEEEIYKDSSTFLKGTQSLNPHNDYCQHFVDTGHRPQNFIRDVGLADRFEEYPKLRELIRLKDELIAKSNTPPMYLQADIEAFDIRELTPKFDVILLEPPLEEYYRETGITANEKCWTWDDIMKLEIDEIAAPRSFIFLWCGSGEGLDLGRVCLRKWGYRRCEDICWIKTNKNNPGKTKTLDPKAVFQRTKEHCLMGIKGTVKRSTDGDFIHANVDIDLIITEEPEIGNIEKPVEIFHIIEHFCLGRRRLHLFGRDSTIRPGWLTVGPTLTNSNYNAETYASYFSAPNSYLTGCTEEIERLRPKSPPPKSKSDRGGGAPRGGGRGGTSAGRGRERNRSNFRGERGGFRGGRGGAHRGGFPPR
# Description: The interaction between eltrombopag and the METTL3-14 complex was explored using a Reichert […] instrument optical biosensor (Reichert Technologies, Depew, NY, USA) equipped with a carboxymethyl dextran sensor chip (part no. 13206066, Reichert Technologies). To activate the sensor chip, free carboxyl groups on the surface were modified by injecting a mixture of 0.1 M of 1-ethyl-3-(3-dimethylaminopropyl) carbodiimide hydrochloride and 0.05 M of N-hydroxysuccinimide at a flow rate of 10 μL/min to generate a reactive succinimide ester surface. […] The binding experiments were performed using a flow rate of 30 μL/min with an association time of 5 min and a dissociation time of 7 min. The regeneration of the surfaces was performed, when necessary, by 10 mM of NaOH. The Langmuir model of the Scrubber2 software was used to determine the equilibrium dissociation constant and kinetic dissociation and association constants.
# METTL3-14 complex [4] = target: T3, METTL3-14 complex; assay: Mass spectrometry based METTL3-14 enzyme based assay (m^6A level of single strand RNA substrate); type: biochemical; conditions: read-out: IC50, METTL3-14 inhibition, mass spectrometric enzyme based assay
# Description: The 30 nM of METTL3-14 was incubated with 300 nM of SAM, 300 nM of RNA substrates, and serially diluted compounds at 23 °C for 1 h as described above. The enzymatic reaction was stopped by heating at 80 °C for 10 min and centrifuged at 15,000× g for 10 min. Then, the reacted RNA in the supernatant was digested to nucleosides by using 2 units of nuclease P1 (NEB, Ipswich, MA, USA) and dephosphorylated by using 1 unit of alkaline phosphatase (NEB) at 37 °C for 2 h.
# The produced nucleosides were detected by reversed-phase high-performance liquid chromatography on an ACQUITY BEH C18 column ([…], 2.1 mm × 50 mm; Waters) coupled with mass spectrometry detection using an EVOQ Elite ER LC-TQ (Bruker, Billerica, MA, USA). The adenosine and m^6A were quantified using an MRM transition as follows: m/z = 267.9 -> 136.1 and m/z = 282.1 -> 150.1, respectively. (Retention time 5 min). The m^6A/A nucleoside ratio of the eltrombopag-treated sample was normalized to the corresponding value of the DMSO treated negative control. The IC50 values were calculated by a nonlinear regression analysis using OriginPro 9.1 software (OriginLab).
# T1 sequence (Q8TEK3 whole entry): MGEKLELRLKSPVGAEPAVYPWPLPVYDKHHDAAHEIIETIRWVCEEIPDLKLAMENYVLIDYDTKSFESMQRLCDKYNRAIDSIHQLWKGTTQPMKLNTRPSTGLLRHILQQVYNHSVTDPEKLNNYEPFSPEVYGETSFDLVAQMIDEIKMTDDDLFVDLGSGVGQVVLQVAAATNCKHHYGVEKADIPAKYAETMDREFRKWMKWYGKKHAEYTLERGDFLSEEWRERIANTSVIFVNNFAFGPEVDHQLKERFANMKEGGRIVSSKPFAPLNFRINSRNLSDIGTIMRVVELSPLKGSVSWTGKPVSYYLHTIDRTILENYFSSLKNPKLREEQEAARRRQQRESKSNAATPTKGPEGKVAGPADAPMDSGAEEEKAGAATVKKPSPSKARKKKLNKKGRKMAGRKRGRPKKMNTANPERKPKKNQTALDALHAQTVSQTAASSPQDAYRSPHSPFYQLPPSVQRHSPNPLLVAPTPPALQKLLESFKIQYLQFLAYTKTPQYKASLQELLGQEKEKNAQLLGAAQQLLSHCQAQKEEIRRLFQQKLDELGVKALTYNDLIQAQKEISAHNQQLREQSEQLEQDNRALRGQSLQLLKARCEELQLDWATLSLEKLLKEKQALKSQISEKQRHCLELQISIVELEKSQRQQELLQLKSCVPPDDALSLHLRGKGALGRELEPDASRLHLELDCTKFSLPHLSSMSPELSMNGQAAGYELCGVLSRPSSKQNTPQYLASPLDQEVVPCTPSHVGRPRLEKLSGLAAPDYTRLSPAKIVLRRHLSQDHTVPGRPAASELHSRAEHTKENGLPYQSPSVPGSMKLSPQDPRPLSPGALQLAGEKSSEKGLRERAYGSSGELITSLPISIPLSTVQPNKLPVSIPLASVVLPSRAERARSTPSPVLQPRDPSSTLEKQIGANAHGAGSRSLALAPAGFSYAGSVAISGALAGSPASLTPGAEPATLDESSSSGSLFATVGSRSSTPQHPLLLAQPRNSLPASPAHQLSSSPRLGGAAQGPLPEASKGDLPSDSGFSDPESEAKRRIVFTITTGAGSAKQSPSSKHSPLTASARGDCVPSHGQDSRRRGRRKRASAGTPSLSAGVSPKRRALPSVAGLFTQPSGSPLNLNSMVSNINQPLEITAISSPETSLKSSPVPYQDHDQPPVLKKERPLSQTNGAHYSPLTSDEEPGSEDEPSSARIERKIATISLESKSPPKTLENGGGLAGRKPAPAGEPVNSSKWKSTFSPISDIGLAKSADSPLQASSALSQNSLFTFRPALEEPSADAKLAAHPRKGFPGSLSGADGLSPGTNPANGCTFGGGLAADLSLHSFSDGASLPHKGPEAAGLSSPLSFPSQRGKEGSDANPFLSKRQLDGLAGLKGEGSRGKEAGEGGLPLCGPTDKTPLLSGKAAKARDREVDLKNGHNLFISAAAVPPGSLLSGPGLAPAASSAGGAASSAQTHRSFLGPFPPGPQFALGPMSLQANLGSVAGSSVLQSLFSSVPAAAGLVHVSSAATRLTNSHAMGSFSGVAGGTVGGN
smiles,measurement,setting,value
CC1=NN(c2ccc(C)c(C)c2)C(=O)/C1=N\Nc1cccc(-c2cccc(C(=O)O)c2)c1O [Eltrombopag],remaining activity at 10 µM,DOT1L,90 ± 2.8%
same,GI50,HL60 cells,12.9 ± 0.9 µM
same,GI50,THP-1 cells,22.3 ± 0.4 µM
same,in-vivo anti-leukemic effect (survival),[1],prolonging the survival
same,IC50,METTL3,7.04 µM
same,water solubility,[2],low
same,Ka (kinetic association constant),METTL3-14 complex [3],492(4)
same,Kd,"METTL3-14 complex [3]; Langmuir model, read-out: KD (equilibrium dissociation constant)",13.2 µM
same,IC50,METTL3-14 complex [4],4.55 µM
